Consider 23 compounds from patent US7943653B2 (priority 2008, dated 2011).

Where two headings read alike, the source gives them in different places.

One experiment has as its target T1, human CB2 receptor (Homo sapiens, UniProt P34972).
T1 construct: expressed in transfected cells; host or cells: SK-N-MC cells, stably transfected with pcDNA3 CB-2 (human); semi-purified membrane pellet
As to the kind of experiment: Binding assay, cannabinoid CB2 receptor, [3H]-CP-55,940 displacement. Conditions: for inhibition at 1 µM / inhibition at 0.2 µM: read-out: Cannabinoid CB2 Receptor Binding, percent inhibition; for IC50: membranes of SK-N-MC cells expressing human CB2, calculated by linear regression from percent inhibition at various concentrations. As to the method: (§1) The human CB1 and CB2 receptors were stably expressed in SK-N-MC cells transfected with pcDNA3 CB-1 (human) or pcDNA3 CB-2 (human). The cells were grown in T-180 cell culture flasks under standard cell culture conditions at 37° C. in a 5% CO2 atmosphere. The cells were harvested by trysinization and homogenized in a homogenization buffer (10 mM Tris, 0.2 mM MgCl2, 5 mM KCl, with protease inhibitors aprotinin, leupeptin, pepstatin A and bacitracin) and centrifuged (2000 g). The supernatant was then centrifuged in 2M sucrose (31,300 g) to produce a semi-purified membrane pellet. The pellet was resuspended in homogenization and stored at −80° C.
(§2) On the day of the assay, the pellet was thawed on ice and diluted in assay buffer (50 mM Tris-HCl, 5 mM MgCl2, 2.5 mM EDTA, 0.5 mg/mL fatty acid free bovine serum albumin, pH 7.5). The diluted membrane pellet was added with buffer, either a test compound or vehicle standard and the radioligand [H]^3+-CP-55,940 (0.2 nM) to the wells of a 96-well polypropylene plate. Non-specific binding was measured in wells containing WIN 55,212 (10 uM). The plate was covered and incubated for 90 minutes at 30° C. The contents were then aspirated onto a Packard Unifilter GF/C filter bottom plate prewet with 0.5% polyethyleneimine. The wells of the polypropylene plate were rinsed and aspirated seven times with a 0.9% saline-0.5% Tween 20 solution. The Unifilter plate was dried, scintillation cocktail was added to each well and the counts representing binding were quantitated in a TopCount scintillation counter.
(§3) For compounds tested, an IC50 binding value was obtained from percent inhibition studies in which various test concentrations were used. The binding value was calculated by linear regression.
(§4) For compounds without an IC50 binding value, the percent inhibition (%) was obtained at a test concentration of ^a1.0 μM or ^b0.2 μM.

The target of another experiment is T2, human CB1 receptor (Homo sapiens, UniProt P21554).
T2 construct: expressed in transfected cells; host or cells: SK-N-MC cells, stably transfected with pcDNA3 CB-1 (human); semi-purified membrane pellet
As to the kind of experiment: Binding assay, cannabinoid CB1 receptor, [3H]-CP-55,940 displacement. As to the method:
as §1, §2, §3, §4

The mark [1] stands for this setting: membranes of SK-N-MC cells expressing human CB1, calculated by linear regression from percent inhibition at various concentrations, read-out: Cannabinoid CB1 Receptor Binding, IC50 binding value.
[2] abbreviates: read-out: Cannabinoid CB1 Receptor Binding, percent inhibition.

T2 sequence (P21554 whole entry): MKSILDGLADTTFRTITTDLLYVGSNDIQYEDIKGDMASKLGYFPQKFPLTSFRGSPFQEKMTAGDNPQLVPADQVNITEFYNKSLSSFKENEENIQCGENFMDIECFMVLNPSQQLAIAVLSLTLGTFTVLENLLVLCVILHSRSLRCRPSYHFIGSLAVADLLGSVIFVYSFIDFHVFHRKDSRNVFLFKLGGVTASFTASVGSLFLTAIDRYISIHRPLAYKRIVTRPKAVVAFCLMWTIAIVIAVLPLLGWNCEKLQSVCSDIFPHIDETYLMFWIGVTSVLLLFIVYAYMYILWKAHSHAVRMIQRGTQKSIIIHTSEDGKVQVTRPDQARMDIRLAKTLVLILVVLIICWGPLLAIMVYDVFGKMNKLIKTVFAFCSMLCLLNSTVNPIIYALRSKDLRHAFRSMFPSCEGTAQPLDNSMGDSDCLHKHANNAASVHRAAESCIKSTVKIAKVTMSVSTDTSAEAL
T1 sequence (P34972 whole entry): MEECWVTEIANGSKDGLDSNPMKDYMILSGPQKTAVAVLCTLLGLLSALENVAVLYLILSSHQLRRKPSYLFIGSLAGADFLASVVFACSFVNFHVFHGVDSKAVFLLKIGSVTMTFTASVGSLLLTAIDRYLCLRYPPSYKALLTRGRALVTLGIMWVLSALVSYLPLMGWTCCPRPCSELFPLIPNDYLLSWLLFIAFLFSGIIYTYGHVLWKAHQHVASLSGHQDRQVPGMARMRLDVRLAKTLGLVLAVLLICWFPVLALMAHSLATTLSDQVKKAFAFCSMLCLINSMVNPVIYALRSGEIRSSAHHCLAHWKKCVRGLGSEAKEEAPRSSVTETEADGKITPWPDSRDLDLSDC

Regarding `CC(=Cc1ccc(Cl)cc1)c1c(C)c(C(=O)NC2CCCCC2C)nn1-c1ccc(Cl)cc1Cl` (stereo not shown) [Cpd 7, 5-[2-(4-chloro-phenyl)-1-methyl-vinyl]-1-(2,4-dichloro-phenyl)-4-methyl-1H-pyrazole-3-carboxylic acid (2-methyl-cyclohexyl)-amide], the inhibition at 1 µM on human CB2 receptor turned out to be 55%. The 50% inhibitory concentration (IC50) at human CB1 receptor (setting [1]) was 110 nM.

Consider `CC(=Cc1ccc(Cl)cc1)c1c(C)c(C(=O)NN2CCCCC2)nn1-c1ccc(Cl)cc1Cl` [Cpd 4, 5-[2-(4-chloro-phenyl)-1-methyl-vinyl]-1-(2,4-dichloro-phenyl)-4-methyl-1H-pyrazole-3-carboxylic acid piperidin-1-ylamide], for which the 50% inhibitory concentration (IC50) on human CB2 receptor was 1700 nM; on human CB1 receptor, 90 nM.

Take `CC(=Cc1ccc(Cl)cc1)c1c(C)c(C(=O)Nc2ccccc2)nn1-c1ccc(Cl)cc1Cl` [Cpd 10, 5-[2-(4-chloro-phenyl)-1-methyl-vinyl]-1-(2,4-dichloro-phenyl)-4-methyl-1H-pyrazole-3-carboxylic acid phenylamide]: on human CB2 receptor, the inhibition at 1 µM was found to be 46%. For the same compound, on human CB1 receptor (setting [1]), the IC50 was 600 nM.

With `CC(=Cc1cccc(Cl)c1)c1c(C)c(C(=O)NN2CCOCC2)nn1-c1ccc(Cl)cc1Cl` [Cpd 13, 5-[2-(3-chloro-phenyl)-1-methyl-vinyl]-1-(2,4-dichloro-phenyl)-4-methyl-1H-pyrazole-3-carboxylic acid morpholin-4-ylamide], the inhibition at 1 µM at human CB1 receptor (setting [2]) was found to be 53%.

On to `CC(=Cc1ccc(Cl)cc1)c1c(C)c(C(=O)N[C@@H](C)C2CCCCC2)nn1-c1ccc(Cl)cc1Cl` [Cpd 1, 5-[2-(4-chloro-phenyl)-1-methyl-vinyl]-1-(2,4-dichloro-phenyl)-4-methyl-1H-pyrazole-3-carboxylic acid [(1S)-1-cyclohexyl-ethyl]-amide], for which the inhibition at 1 µM at human CB2 receptor is 42%. Moreover, at human CB1 receptor, the concentration for half-maximal inhibition (IC50) was 20 nM.

Turning to `CC(=Cc1ccc(Cl)cc1)c1c(C)c(C(=O)N[C@H](C)C2CCCCC2)nn1-c1ccc(Cl)cc1Cl` [Cpd 8, 5-[2-(4-chloro-phenyl)-1-methyl-vinyl]-1-(2,4-dichloro-phenyl)-4-methyl-1H-pyrazole-3-carboxylic acid [(1R)-1-cyclohexyl-ethyl]-amide], the inhibition at 1 µM at human CB2 receptor is 39%. For the same compound, the 50% inhibitory concentration (IC50) at human CB1 receptor worked out at 310 nM.

For `CC[C@@H](C)NC(=O)c1nn(-c2ccc(Cl)cc2Cl)c(C(C)=Cc2ccc(Cl)cc2)c1C` [Cpd 28, 5-[2-(4-chloro-phenyl)-1-methyl-vinyl]-1-(2,4-dichloro-phenyl)-4-methyl-1H-pyrazole-3-carboxylic acid [(R)-sec-butyl]-amide], on human CB2 receptor, the inhibition at 0.2 µM was 21%. The half-inhibitory concentration (IC50) on human CB1 receptor amounted to 70 nM.

As for `CC(=Cc1ccc(Cl)cc1)c1c(C)c(C(=O)N[C@@H]2C(C)(C)[C@@H]3CC[C@]2(C)C3)nn1-c1ccc(Cl)cc1Cl` [Cpd 3, 5-[2-(4-chloro-phenyl)-1-methyl-vinyl]-1-(2,4-dichloro-phenyl)-4-methyl-1H-pyrazole-3-carboxylic acid [(1R,2S,4R)-1,3,3-trimethyl-bicyclo[2.2.1]hept-2-yl]-amide], the inhibition at 1 µM at human CB2 receptor was determined as 31%. Also, the IC50 at human CB1 receptor stood at 50 nM.

As for `CC(=Cc1ccc(Cl)cc1)c1c(C)c(C(=O)NC2CCCCC2)nn1-c1ccc(Cl)cc1Cl` [Cpd 6, 5-[2-(4-chloro-phenyl)-1-methyl-vinyl]-1-(2,4-dichloro-phenyl)-4-methyl-1H-pyrazole-3-carboxylic acid cyclohexylamide], the inhibition at 1 µM on human CB2 receptor was determined as 40%. On human CB1 receptor (setting [1]), the IC50 was 130 nM.

On to `CC(=Cc1cccc(Cl)c1)c1c(C)c(C(=O)N[C@@H](C)c2ccccc2)nn1-c1ccc(Cl)cc1Cl` [Cpd 17, 5-[2-(3-chloro-phenyl)-1-methyl-vinyl]-1-(2,4-dichloro-phenyl)-4-methyl-1H-pyrazole-3-carboxylic acid [(1S)-1-phenyl-ethyl]-amide], for which, on human CB1 receptor (setting [1]), the IC50 is 250 nM.

In the case of `CC(=Cc1ccc(Cl)cc1)c1c(C)c(C(=O)N[C@H](C)c2ccccc2)nn1-c1ccc(F)cc1F` [Cpd 23, 5-[2-(4-chloro-phenyl)-1-methyl-vinyl]-1-(2,4-difluoro-phenyl)-4-methyl-1H-pyrazole-3-carboxylic acid [(1R)-1-phenyl-ethyl]-amide], the half-inhibitory concentration (IC50) on human CB1 receptor (setting [1]) is 300 nM.

Take `CC(=Cc1cccc(Cl)c1)c1c(C)c(C(=O)NN2CCCCC2)nn1-c1ccc(Cl)cc1Cl` [Cpd 12, 5-[2-(3-chloro-phenyl)-1-methyl-vinyl]-1-(2,4-dichloro-phenyl)-4-methyl-1H-pyrazole-3-carboxylic acid piperidin-1-ylamide]: at human CB1 receptor (setting [1]), the IC50 was 250 nM.

With `CC(=Cc1ccc(Cl)cc1)c1c(C)c(C(=O)N[C@@H](C)C2CCCCC2)nn1-c1ccc(F)cc1F` [Cpd 21, 5-[2-(4-chloro-phenyl)-1-methyl-vinyl]-1-(2,4-difluoro-phenyl)-4-methyl-1H-pyrazole-3-carboxylic acid [(1S)-1-cyclohexyl-ethyl]-amide], on human CB1 receptor (setting [1]), the IC50 was 130 nM.

For `CC(=Cc1ccc(Cl)cc1)c1c(C)c(C(=O)N[C@H](C)C2CCCCC2)nn1-c1ccc(F)cc1F` [Cpd 24, 5-[2-(4-chloro-phenyl)-1-methyl-vinyl]-1-(2,4-difluoro-phenyl)-4-methyl-1H-pyrazole-3-carboxylic acid [(1R)-1-cyclohexyl-ethyl]-amide], on human CB1 receptor (setting [1]), the IC50 was 280 nM.

As to `CC(=Cc1cccc(Cl)c1)c1c(C)c(C(=O)N[C@H](C)c2ccccc2)nn1-c1ccc(Cl)cc1Cl` [Cpd 19, 5-[2-(3-chloro-phenyl)-1-methyl-vinyl]-1-(2,4-dichloro-phenyl)-4-methyl-1H-pyrazole-3-carboxylic acid [(1R)-1-phenyl-ethyl]-amide], at human CB1 receptor (setting [1]), the IC50 was 370 nM.

In the case of `CC(=Cc1ccc(Cl)cc1)c1c(C)c(C(=O)N[C@@H](C)c2ccccc2)nn1-c1ccc(Cl)cc1Cl` [Cpd 2, 5-[2-(4-chloro-phenyl)-1-methyl-vinyl]-1-(2,4-dichloro-phenyl)-4-methyl-1H-pyrazole-3-carboxylic acid [(1S)-1-phenyl-ethyl]-amide], on human CB2 receptor, the inhibition at 1 µM was determined as 32%. Moreover, the concentration for half-maximal inhibition (IC50) on human CB1 receptor stood at 20 nM.

As for `CNC(=O)c1nn(-c2ccc(Cl)cc2Cl)c(C(C)=Cc2ccc(Cl)cc2)c1C` [Cpd 27, 5-[2-(4-chloro-phenyl)-1-methyl-vinyl]-1-(2,4-dichloro-phenyl)-4-methyl-1H-pyrazole-3-carboxylic acid methylamide], the inhibition at 0.2 µM on human CB2 receptor stood at 18%; at human CB1 receptor (setting [2]), 11%.

Turning to `CC(=Cc1cccc(Cl)c1)c1c(C)c(C(=O)N[C@H](C)C2CCCCC2)nn1-c1ccc(Cl)cc1Cl` [Cpd 18, 5-[2-(3-chloro-phenyl)-1-methyl-vinyl]-1-(2,4-dichloro-phenyl)-4-methyl-1H-pyrazole-3-carboxylic acid [(1R)-1-cyclohexyl-ethyl]-amide], the IC50 on human CB1 receptor came out at 90 nM.

Turning to `CC(=Cc1cccc(Cl)c1)c1c(C)c(C(=O)N[C@@H](C)C2CCCCC2)nn1-c1ccc(Cl)cc1Cl` [Cpd 16, 5-[2-(3-chloro-phenyl)-1-methyl-vinyl]-1-(2,4-dichloro-phenyl)-4-methyl-1H-pyrazole-3-carboxylic acid [(1S)-1-cyclohexyl-ethyl]-amide], at human CB1 receptor, the IC50 was determined as 330 nM.

For `CC[C@H](C)NC(=O)c1nn(-c2ccc(Cl)cc2Cl)c(C(C)=Cc2ccc(Cl)cc2)c1C` [Cpd 29, 5-[2-(4-chloro-phenyl)-1-methyl-vinyl]-1-(2,4-dichloro-phenyl)-4-methyl-1H-pyrazole-3-carboxylic acid [(S)-sec-butyl]-amide], the inhibition at 0.2 µM at human CB2 receptor came out at 9%; on human CB1 receptor (setting [2]), 52%.

In the case of `CC(=Cc1ccc(Cl)cc1)c1c(C)c(C(=O)NN2CCOCC2)nn1-c1ccc(Cl)cc1Cl` [Cpd 5, 5-[2-(4-chloro-phenyl)-1-methyl-vinyl]-1-(2,4-dichloro-phenyl)-4-methyl-1H-pyrazole-3-carboxylic acid morpholin-4-ylamide], the IC50 at human CB2 receptor is 2000 nM; on human CB1 receptor (setting [1]), 360 nM.

`CC(=Cc1ccc(Cl)cc1)c1c(C)c(C(=O)NCC2CCCCC2)nn1-c1ccc(Cl)cc1Cl` [Cpd 9, 5-[2-(4-chloro-phenyl)-1-methyl-vinyl]-1-(2,4-dichloro-phenyl)-4-methyl-1H-pyrazole-3-carboxylic acid cyclohexylmethyl-amide]: the inhibition at 1 µM at human CB2 receptor came to 49%. Moreover, the IC50 on human CB1 receptor (setting [1]) was 370 nM.

Turning to `CC(=Cc1ccc(Cl)cc1)c1c(C)c(C(=O)N[C@H](C)c2ccccc2)nn1-c1ccc(Cl)cc1Cl` [Cpd 11, 5-[2-(4-chloro-phenyl)-1-methyl-vinyl]-1-(2,4-dichloro-phenyl)-4-methyl-1H-pyrazole-3-carboxylic acid [(1R)-1-phenyl-ethyl]-amide], the inhibition at 1 µM on human CB2 receptor stood at 51%. The compound also gave an IC50 on human CB1 receptor of 340 nM.
